Legend:
melanoma cell lines = assay: Cell viability by MTT assay, melanoma cell lines; type: cell-based, human; conditions: 5 μM, 48 hours, vs vehicle (DMSO), FIG. 2
Method: UNC0642 was purchased from Sigma Aldrich. The panel of human melanoma cell lines, derived from cutaneous melanomas, is shown in Table 1 and the cells have all been previously described. Cells were maintained in Roswell Park Memorial Institute (RPMI) 1640 supplemented with 10% fetal bovine serum (FBS), 100 U/mL penicillin, and 100 µg/mL streptomycin in a humidified atmosphere of 5% CO2 at 37° C. Normal melanocytes were grown in Clonetics™ MGM™-4 Melanocyte Growth Medium-4 supplemented with CaCl2, phorbol-12-myristate 13-acetate (PMA), recombinant human fibroblast growth factor basic (rhFGF-B), recombinant human insulin (rh-insulin), hydrocortisone, bovine pituitary extract (BPE), FBS and GA-1000 (30 μg/ml Gentamycin and 15 ng/ml Amphotericin) (Lonza).
For proliferation studies, cells (5×10^3) were seeded in 96-place wells and allowed to adhere overnight, and incubated in fresh growth medium in the presence of either the G9a inhibitor UNC0642 (Sigma Aldrich) or the vehicle control DMSO (Sigma Aldrich). Proliferation was evaluated via real-time imaging using IncuCyte Zoom (Essen BioScience) and/or by performing a 3-(4,5-dimethylthiazol-2-yl)-2,5-diphenyltetrazolium bromide ([…]) assay. After monitoring the cells, 20 μL of MTT (5 mg/mL; Sigma-Aldrich) was added. […] The absorbance value (optical density) of each well was measured at 570 nm.

[1] = test system: C006 and C092 melanoma cell lines; assay: Proliferation by IncuCyte Zoom real time cell imaging, less sensitive lines; type: cell-based, human; conditions: C006 and C092, 5 μM, 48 hours, compared to vehicle
Method: (§1) Four cell lines were then chosen for further analysis. These were C006 (NRAS mt), C092 (Triple wt), C008 (NF1 mt) and D05 (BRAF mt). These four lines are representatives of the 4 cutaneous melanoma genomic subtypes and include 2 lines (C008 and D05) that were very sensitive to the inhibitor and 2 lines that were less sensitive (C006 and C092). Proliferation of these lines was evaluated by real time cell imaging using IncuCyte Zoom where cells were grown for 48 hours in the presence or absence of 5 μM UNC0642.
(§2) For proliferation studies, cells (5×10^3) were seeded in 96-place wells and allowed to adhere overnight, and incubated in fresh growth medium in the presence of either the G9a inhibitor UNC0642 (Sigma Aldrich) or the vehicle control DMSO (Sigma Aldrich). Proliferation was evaluated via real-time imaging using IncuCyte Zoom (Essen BioScience) and/or by performing a 3-(4,5-dimethylthiazol-2-yl)-2,5-diphenyltetrazolium bromide ([…]) assay. After monitoring the cells, 20 μL of MTT (5 mg/mL; Sigma-Aldrich) was added. The plates were incubated at 37° C. for 3 h before the supernatants were removed, and 100 μL of isopropanol was added to each well. The absorbance value (optical density) of each well was measured at 570 nm.

[2] = test system: D05 and C008 melanoma cell lines; assay: Proliferation by IncuCyte Zoom real time cell imaging, sensitive lines; type: cell-based, human
Method: as §1, §2

D20 melanoma cells = assay: In vivo tumor growth analysis, D20 melanoma xenograft; parameters: species or system SCID mice; conditions: 5 mg/kg every two days for two weeks, vs vehicle control
Method: To determine the effect of inhibiting G9a on tumor growth, 6-8 week old SCID mice were subcutaneously injected with D20 BRAF mutant cutaneous melanoma cells. Palpable tumors were allowed to establish (approx. 10 days) before UNC0642 was administered at 5 mg/kg every two days for two weeks. The D20 cell line was used in the subcutaneous model as it had been shown previously to be tumorigenic in vivo and was also sensitive to the drug in vitro.
Groups of 8 SCID mice per treatment group were used for xenograft studies to ensure adequate power to detect biological differences. All experiments were approved by the QIMR Berghofer Medical Research Institute Animal Ethics Committee. D20 melanoma cells (2×106) were mixed 1:1 ratio with Growth factor-reduced Matrigel (BD Biosciences) and injected subcutaneously into the flank of 6-8 week old mice in 100 μL volume (day 0) and treatments, either DMSO or UNC0642 at 5 mg/kg were administered as indicated in the figure legends. Tumor volumes (width2×length/2) were measured using a digital calliper, and presented as mean±SD. All animals were sacrificed at the same time and the tumors were dissected for further analysis.

LC3B II = assay: Immunoblotting analysis of LC3B I/II; type: cell-based, human; conditions: D05 and C008 cell lines, 5 μM, 8 hours, FIG. 6
Method: For immunoblotting, protein whole cell lysates were prepared using RIPA lysis buffer containing 20 mM Tris, pH 8.0, 150 mM NaCl, 10% glycerol, 1% Nonidet P-40 containing protease inhibitor cocktail (Roche). Nuclear extracts were obtained using a standard high salt extraction buffer (20 mM HEPES (pH 7.9), 0.32 M NaCl, 1 mM EDTA, and 1 mM EGTA) supplemented with 1mM DU and protease inhibitor cocktail. Protein assays were performed according to the Bradford method using a protein assay kit (BioRad). […] of denatured proteins were separated using 10% sodium dodecyl sulfate-polyacrylamide gel electrophoresis (SDS-PAGE) and transferred to Polyvinylidene difluoride (PVDF) membranes. The membranes were blocked for 1 hour in 5% skim milk in Tris-buffered saline with Tween 20 (TBST; 10 mM Tris-HCl, 150 mM NaCl, 0.1% Tween 20). Immunoblotting was performed with primary anti G9a (#3306, Cell Signaling), H3K9me2 (ab 1220, Abcam), H3 (ab1791, Abcam) or Tubulin (ab6046, Abcam) and detected with either HRP-conjugated anti-rabbit (#7074, Cell Signaling Technology) or HRP-conjugated anti-mouse (#7076, Cell Signaling Technology). After applying ECL detection reagents (GE Healthcare), protein bands were visualized using X-ray film (Fujifilm).
Immunoblotting analysis was performed as described above, but also utilizing an anti-LC3B primary antibody (ab48394, Abcam).

LC3B = assay: EGFP-LC3B immunofluorescence analysis (punctate pattern); type: cell-based, human; conditions: D05 and C092 cell lines, 5 μM, 8 hours, data not shown
Method: Retroviral constructs expressing short hairpin RNA to G9a (shG9a) or a non-silencing control (shNS) were used as previously described (Casciello et al. (2017) Proc Natl Acad Sci USA 114, 7077-7082). pBABE-puro mCherry-EGFP-LC3B was obtained from Addgene (plasmid #22418) (N'Diaye et al. (2009) EMBO reports 10, 173-179). The viral supernatants were prepared by co-transfecting the constructs with pUMVC3 and pVSV-G into HEK293T cells using Superfect transfection reagent (Qiagen). The supernatants were harvested and used to infect cells in medium, which contained 8 μg/ml polybrene. Cell medium was replaced and fresh growth medium was added after 24 h. Cells were harvested 72 h later or selected using 1 μg/ml of Puromycin sulfate.
Stable cells expressing EGFP-LC3B construct were treated with DMSO, UNC0642 at 5 μM or 20 nM Bafilomycin A1 (Sigma Aldrich) for 8 hours. Images were taken with an EVOS FL auto fluorescent microscope (Invitrogen) and quantitated using ImageJ software.

COc1cc2c(NC3CCN(C(C)C)CC3)nc(N3CCC(F)(F)CC3)nc2cc1OCCCN1CCCC1 [UNC0642]
Cell survival (cell viability, MTT assay) (melanoma cell lines): significantly attenuated | proliferation [1]: much less affected | proliferation ([2]; D05 and C008, 5 μM, 48 hours, compared to vehicle control, data not shown): significant reduction in proliferation | number of cells ([2]; over 48 hours treatment, 5 μM, FIG. 3A): significantly decreased | tumor weight (D20 melanoma cells; end-point, P<0.01, FIG. 10B): statistically significantly reduced | tumor growth (D20 melanoma cells; intraperitoneally, P<0.05, FIG. 10A): statistically significantly reduced | LC3B II protein levels (LC3B II): dramatically increased | distribution of EGFP-LC3B (punctate pattern) (LC3B): increase in punctate pattern
